Patent publication US20190314311A1, “PHARMACEUTICAL COMPOSITION” (JAPAN SCIENCE AND TECHNOLOGY AGENCY, priority 2016, published 2019)

What was measured:
Thio-Q62 protein = assay: native PAGE of β-sheet conformational transition; type: biochemical; conditions: 8.2 μM Thio-Q62, 600 mM arginine, PBS pH 7.5, 37° C., five days
Text: The separated proteins were stained with Coomassie brilliant blue (CBB).

[1] = tested on: COS-7 cells expressing Q45-GFP; assay: FCS analysis of polyQ oligomer formation in cell lysates; type: cell-based; conditions: 25 mM arginine, lysed 48 hours after transfection
Protocol: For polyQ oligomer formation, the fluorescent protein GFP fused with a protein having a PolyQ repeat consisting of 45 glutamines (Q45-GFP) was used as the monomer. Two indices obtained from FCS measurement were used to assess the property of polyQ oligomers; counts per particle (CPP) and the diffusion time of the fast components (DT1) (Non-Patent Document 11). […] DT1 reflects the size of the Q45-GFP oligomers.
FCS analysis was performed by the method described in Non-Patent Document 11. […] The cell lysates were gently sonicated and centrifuged to remove insoluble Q45-GFP inclusion bodies. The resulting supernatants containing no visible inclusion bodies were subjected to FCS measurements. From the measurements, the diffusion time, which corresponds to the average time for diffusion of fluorescent particles across the detection area and CPP, which directly reflects the number of fluorescent molecules per particle, were calculated.

MJDtr-Q78(S) flies = assay: Drosophila model of the PolyQ diseases (SCA3/MJD); type: in vivo, Drosophila melanogaster
Protocol: The spinocerebellar ataxia type 3 (SCA3/MJD) model flies were used, which express the truncated form of the MJD protein with an abnormally expanded polyQ repeat consisting of 78 glutamines (MJDtr-Q78) in the compound eye (Non-Patent Document 12). The severe compound eye degeneration induced by MJDtrQ78 can be easily detected under the light microscope.
Fly culture and crosses were performed under standard conditions at 25° C. The MJDtr-Q78(S) transgenic fly line bearing the UAS-MJDtr-Q78 transgene for expression of MJDtr-Q78 described in Non-Patent Document 12 was used. The fly line bearing the gmr-GAL4 transgene was obtained from the Drosophila Genetic Resource Center at Kyoto Institute of Technology, Japan. […] For evaluation of compound eye degeneration, light microscopic images of the compound eye were taken using a stereoscopic microscope model “SZX9” (Olympus). For detection of the MJDtr-Q78 protein in eye imaginal discs of third instar larvae, immunostaining with an anti-hemagglutinin antibody (clone 3F10, Roche) was performed according to the method described in Non-Patent Document 13. Fluorescence microscopic images were taken using a confocal laser scanning microscope model “LSM510” (Carl Zeiss).

[2] = tested on: Q40-GFP expressing nematode line; assay: SDD-AGE of polyQ oligomers in nematode lysates; type: in vivo, Caenorhabditis elegans; conditions: 10 mM arginine
Protocol: SDD-AGE was performed as follows. First, nematodes were lysed in lysis buffer (0.5% SDS, 0.5% NP-40, 50 mM Tris-HCl, 150 mM NaCl, 5 mM EDTA, protease inhibitor cocktail), the resulting lysate was run on a 1% agarose gel with 0.01% SDS in a running buffer of Tris-Glycine containing 0.01% SDS, and then transferred overnight onto a nitrocellulose membrane. For subsequent western blot analysis, the membrane was incubated with the anti-GFP antibody (MBL Life sciences) at 10,000 dilution as the primary antibody at 4° C. overnight, and then with the HRP-conjugated anti-rabbit IgG antibody (MBL Life sciences) at 20,000 dilution as the secondary antibody. Immunoblots were imaged using the Lumino image analyzer system “ImageQuant LAS 4000” (GE Healthcare Life Sciences) and analyzed using “ImageQuantTL” (GE Healthcare Life Sciences).

SCA1 mice [3] = assay: balance beam test; type: in vivo, mouse; conditions: 6% arginine in drinking water from 3 weeks; 28 weeks of age; vs untreated SCA1 mice
Protocol: SCA1 mice were also examined using the balance beam test to assess the motor coordination. For balance beam analysis, mice were assessed on their time to cross a beam with 1 m-long and 15 mm-diameter. The beam was placed approximately 50 cm above the ground with a bright light at the starting end and a dark box at the far end. Mice were initially trained for 3 consecutive days, 2 trials each, so that they learn to cross the beam without falling or turning around. On testing days, the time it took the mice to cross the beam was recorded. If the mice took longer than 60 seconds to cross, the score was counted as 60 seconds. Two trials were performed for each mouse, and a faster time was used for analysis.

SCA1 mice [4] = assay: rotarod test, arginine from 5 weeks of age (after onset); type: in vivo, mouse; conditions: 6% arginine in drinking water from 5 weeks of age; 7 to 19 weeks of age; significant at 15 and 19 weeks
Protocol: An important factor of consideration in developing treatments for neurodegenerative diseases including polyQ diseases is whether the drug exerts its therapeutic effect at the symptomatic phase when the pathological process has already progressed. To date, therapeutic candidates have been administered to polyQ disease mice prophylactically at the pre-symptomatic phase in most preclinical studies.
The rotarod test was carried out in the same manner as in Example 4. The time courses of the amount of walking time until wild type mice and SCA1 mice fell from the rotarod (Latency) are shown in FIG. 21. In the figure, “WT Water”, “WT Arg”, “SCA1 Water”, and “SCA1 Arg” represent the same as in FIG. 17. In the figure, values represent means±SEM (n=23-25), “*” represents p<0.05.

SBMA mice = assay: horizontal open-field activity and rearing behavior; type: in vivo, mouse; conditions: 6% arginine in drinking water from 3 weeks; 12 weeks of age
Text: As another PolyQ disease mouse model, the SBMA mouse (Non-Patent Document 18) was used. […] This motor dysfunction can be reversed with drug treatment (Non-Patent Document 19). The SBMA mouse used in this experiment was a kind gift from Dr. Gen Sobue (Nagoya University, Japan).
The motor dysfunction of the SBMA mouse can be monitored as spontaneous motor dysfunction, by measuring horizontal open-field activity and rearing behavior in the cage (Non-Patent Document 18). […] As a control, water without arginine was given to SBMA mice as drinking water (arginine untreated).
Horizontal open-field activity and rearing behavior were measured using a spontaneous locomotor activity monitor “Supermex” (Muromachi Kikai) according to the method described in Non-Patent Document 18. Specifically, a mouse was placed in a measuring cage in which infrared beams were projected inside and were allowed to move around freely. When the mouse moves inside the measuring cage, the infrared beam is obstructed and the infrared ray cannot be detected by the light receiving part (beam break). The number of beam breaks per minute was determined by measuring the number of beam breaks (counts/min). To detect movements in the horizontal direction, the number of beam breaks of the infrared beams projected in the vertical direction were counted. […]

With `N=C(N)NCCC[C@H](N)C(=O)O` [arginine] the “band of β-sheet-rich monomer (native PAGE, CBB)” value (Thio-Q62 protein) was “did not appear even when incubated for a sufficient period of time”, the “counts per particle (CPP)” value [1] was “decreased compared to untreated cells” and the “diffusion time of the fast components (DT1)” value [1] was “decreased compared to untreated cells”. For the same compound, the “number of inclusion bodies in eye discs of larvae” value (MJDtr-Q78(S) flies; food containing arginine (100 mM in FIG. 10)) was “decreased”, the compound eye degeneration (MJDtr-Q78(S) flies; food containing either 25, 50 or 100 mM arginine) was “remarkably ameliorated” and the “smear intensity by image analysis” value [2] was “became smaller”. For the same compound, the “smear of Q40-GFP oligomers (SDD-AGE image)” value [2] was “much lighter and less broad smear”, the “time to cross the balance beam” value (SCA1 mice [3]) was “significantly less time” and the “time to walk without falling from the rotarod” value (SCA1 mice [4]) was “longer time to walk without falling from the rotarod than the untreated SCA1 mice”. The horizontal activity (SBMA mice) was “improved to levels comparable to untreated wild type mice” and the rearing behavior (SBMA mice) was “improved to levels comparable to untreated wild type mice”.
